Laboratory results from patent US10793547B2, “Modulator of the cystic fibrosis transmembrane conductance regulator, pharmaceutical compositions, methods of treatment, and process for making the modulator” (Vertex Pharmaceuticals Incorporated, priority 2016, dated 2020).

Tests used:
F508del-CFTR = biological target: T1, F508del-CFTR (Homo sapiens, UniProt P13569, DEL508-508); assay: Membrane potential optical (FLIPR) assay for F508del-CFTR modulators in NIH 3T3 cells; format: cell-based; conditions: NIH 3T3 cells expressing F508del; assay A1; read-out: CFTRdF508 Cor 3T3 FLIPR 384 CFTRdF508 MP 3T3 770 EC50
T1 construct: expressed in transfected cells
T1 sequence (P13569 with tags, fused parts or gaps DEL508-508): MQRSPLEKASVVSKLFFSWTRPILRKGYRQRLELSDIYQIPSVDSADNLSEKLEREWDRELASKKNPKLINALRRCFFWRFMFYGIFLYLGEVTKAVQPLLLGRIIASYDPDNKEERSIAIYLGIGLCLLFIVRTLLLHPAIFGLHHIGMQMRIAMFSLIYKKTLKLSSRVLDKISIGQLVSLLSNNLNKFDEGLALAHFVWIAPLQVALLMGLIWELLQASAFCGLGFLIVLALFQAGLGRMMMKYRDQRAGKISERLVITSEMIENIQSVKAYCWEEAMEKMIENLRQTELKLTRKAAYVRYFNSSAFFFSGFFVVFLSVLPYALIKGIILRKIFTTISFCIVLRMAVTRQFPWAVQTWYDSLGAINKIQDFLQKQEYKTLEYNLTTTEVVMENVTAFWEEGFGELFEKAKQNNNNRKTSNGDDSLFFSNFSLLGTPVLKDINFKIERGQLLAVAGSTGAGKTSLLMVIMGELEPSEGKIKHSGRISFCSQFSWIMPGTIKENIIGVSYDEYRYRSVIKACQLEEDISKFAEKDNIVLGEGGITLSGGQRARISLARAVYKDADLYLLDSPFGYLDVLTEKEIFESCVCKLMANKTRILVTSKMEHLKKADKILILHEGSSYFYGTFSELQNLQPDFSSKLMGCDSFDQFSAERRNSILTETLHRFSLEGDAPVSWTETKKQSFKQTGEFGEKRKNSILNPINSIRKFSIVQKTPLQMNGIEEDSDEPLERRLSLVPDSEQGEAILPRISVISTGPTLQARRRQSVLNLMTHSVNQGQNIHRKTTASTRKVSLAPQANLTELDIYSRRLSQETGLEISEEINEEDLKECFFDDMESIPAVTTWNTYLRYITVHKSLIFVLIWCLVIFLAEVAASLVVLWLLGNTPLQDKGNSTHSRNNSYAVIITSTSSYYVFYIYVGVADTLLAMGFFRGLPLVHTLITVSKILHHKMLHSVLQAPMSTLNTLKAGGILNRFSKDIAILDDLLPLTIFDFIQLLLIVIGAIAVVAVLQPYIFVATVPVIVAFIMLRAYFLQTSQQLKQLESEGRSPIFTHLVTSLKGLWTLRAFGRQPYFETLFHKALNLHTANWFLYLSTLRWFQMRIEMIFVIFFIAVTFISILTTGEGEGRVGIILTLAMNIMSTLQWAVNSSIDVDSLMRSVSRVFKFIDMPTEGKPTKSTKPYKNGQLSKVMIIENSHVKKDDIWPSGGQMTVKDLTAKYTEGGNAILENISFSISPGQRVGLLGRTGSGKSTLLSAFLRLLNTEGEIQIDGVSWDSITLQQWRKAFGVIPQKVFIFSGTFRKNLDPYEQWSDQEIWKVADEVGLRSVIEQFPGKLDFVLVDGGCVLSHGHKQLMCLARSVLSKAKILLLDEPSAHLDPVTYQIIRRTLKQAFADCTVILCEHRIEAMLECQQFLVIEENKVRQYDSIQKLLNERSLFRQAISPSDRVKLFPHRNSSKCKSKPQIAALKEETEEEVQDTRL
Method in brief: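 NIH3T3 mouse fibroblasts stably expressing F508del, seeded on matrigel and cultured 18-24 h at 37 °C; for correction, cells were cultured with or without compound for 18-24 h. Cells were loaded with voltage-sensing dye, then compound was added in one step with a chloride gradient (chloride replaced by gluconate). Membrane potential was read by fluorescence.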

human PXR = biological target: T2, human PXR (Homo sapiens, UniProt O75469); assay: PXR assay: PXR mediated CYP3A4 induction in DPX-2 cell line; format: cell-based; conditions: DPX-2 cells
T2 construct: host or cells: DPX-2 cell line (derived from HepG2)
T2 sequence (O75469 1-434): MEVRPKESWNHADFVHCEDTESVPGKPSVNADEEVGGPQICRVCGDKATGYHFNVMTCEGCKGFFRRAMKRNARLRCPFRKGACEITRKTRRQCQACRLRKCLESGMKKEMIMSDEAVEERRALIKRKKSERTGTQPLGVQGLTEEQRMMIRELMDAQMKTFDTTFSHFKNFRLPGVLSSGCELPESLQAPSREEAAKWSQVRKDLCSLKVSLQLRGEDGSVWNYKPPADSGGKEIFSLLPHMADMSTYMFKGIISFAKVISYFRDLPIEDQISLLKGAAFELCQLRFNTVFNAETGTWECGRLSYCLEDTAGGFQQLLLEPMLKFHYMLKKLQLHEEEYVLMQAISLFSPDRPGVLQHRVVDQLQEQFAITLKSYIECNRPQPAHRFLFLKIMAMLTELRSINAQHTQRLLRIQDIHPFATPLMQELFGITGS
Method in brief: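 HepG2-derived DPX-2 cells stably carrying human PXR and a CYP3A4 promoter/enhancer–luciferase reporter; 11 doses from 0.1 to 60 μM for 48 h, rifampicin as positive control. Viability read by fluorescence, then luciferase luminescence; max fold induction over vehicle and EC50 reported.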

Rat hepatocytes = assay: Hepatocyte clearance, rat hepatocytes; format: in vitro ADME; conditions: percent unchanged
[1] = Metabolism of Compound 1 in vitro and in vivo
[2] = MDCK-Wild Type permeability, 96 well + 0.1% BSA; format: in vitro ADME; conditions: dog, MDCK, A-B direction, read-out: MDCK-Wild Type-Permeability 96 well + 0.1% BSA Papp compound (A-B)
Rat IV and PO PK studies = format: in vivo, male Sprague-Dawley rats; conditions: for RAT PLASMA-RAW IV-bolus CL_drg: nominal 3.0 mg/kg; for RAT PLASMA-RAW PO % F_drg / AUC(0-inf): nominal 3 mg/kg, PO; for AUC(0-inf): male, Sprague-Dawley, plasma, read-out: RAT PLASMA-RAW PO AUC (0-inf)_drg
Protocol: C. Experimental Protocol for Rat IV and PO PK Studies
The tested compound was administered to male Sprague-Dawley rats as a single nominal intravenous dose of 3.0 mg/kg as a solution in 10% NMP, 10% solution, 15% EtOH, 35% PEG400 and 30% D5W. The tested compound was also administered to male Sprague-Dawley rats at single nominal oral dose of 3 mg/kg as a solution in 5% NMP, 30% PEG400, 10% TPGS, 5% PVP-K30 at 5 mL/kg dose volume. Analyses of plasma and dose preparations were performed using LC/MS/MS.
Plasma concentration-time profiles of the tested compound in Sprague-Dawley rats at scheduled (nominal) sampling times were analyzed by noncompartmental pharmacokinetic methods using PK function within Watson LIMS software, Version 7.4.2 (Thermo Scientific Inc, Waltham, Mass.). AUC values were calculated using the linear trapezoidal rule.

SMILES	EC50 (F508del-CFTR)	CYP3A4 Induction-PXR human PXR internal Max % Activity (human PXR)	Hepatocyte clearance-Rat Rat hepatocytes CL pct_unchanged (Rat hepatocytes)	metabolite identity [1]	Papp A→B [2]	RAT PLASMA-RAW IV-bolus CL_drg (Rat IV and PO PK studies)	RAT PLASMA-RAW PO % F_drg (Rat IV and PO PK studies)	AUC(0-inf) (Rat IV and PO PK studies)
C[C@H]1CC(C)(C)N2c3nc(-n4ccc(OCC(C)(C)C(F)(F)F)n4)ccc3C(=O)OC12 (stereo partly drawn) [Compound 57, (7S)-7,9,9-trimethyl-2-(3-(3,3,3-trifluoro-2,2-dimethylpropoxy)-1H-pyrazol-1-yl)-6a,7,8,9-tetrahydro-5H-pyrido[2,3-d]pyrrolo[2,1-b][1,3]oxazin-5-one]	30000 nM	13%	35%	metabolites of Compound 1				
Cc1nn(C)cc1S(=O)(=O)NC(=O)c1ccc(-n2ccc(OCC(C)(C)C(F)(F)F)n2)nc1N1CC(CO)CC1(C)C (centres unmarked) [Compound 30, N-(1,3-dimethylpyrazol-4-yl)sulfonyl-2-[4-(hydroxymethyl)-2,2-dimethyl-pyrrolidin-1-yl]-6-[3-(3,3,3-trifluoro-2,2-dimethyl-propoxy)pyrazol-1-yl]pyridine-3-carboxamide]	950 nM	4%	39%	metabolites of Compound 1	0.6 ×10⁻⁶ cm/s			
C[C@@H]1CN(c2nc(-n3ccc(OCC(C)(C)C(F)(F)F)n3)ccc2C(=O)NS(=O)(=O)c2cn(C)nc2CO)C(C)(C)C1 [Compound 39, N-[3-(hydroxymethyl)-1-methyl-pyrazol-4-yl]sulfonyl-6-[3-(3,3,3-trifluoro-2,2-dimethyl-propoxy)pyrazol-1-yl]-2-[(4S)-2,2,4-trimethylpyrrolidin-1-yl]pyridine-3-carboxamide]	460 nM	1%	39%	metabolites of Compound 1				
Cc1n[nH]cc1S(=O)(=O)NC(=O)c1ccc(-n2ccc(OCC(C)(C)C(F)(F)F)n2)nc1N1C[C@@H](C)CC1(C)C [Compound 31, (S)—N-((3-methyl-1H-pyrazol-4-yl)sulfonyl)-6-(3-(3,3,3-trifluoro-2,2-dimethylpropoxy)-1H-pyrazol-1-yl)-2-(2,2,4-trimethylpyrrolidin-1-yl)nicotinamide]	410 nM	1%	30%	metabolites of Compound 1	1.1 ×10⁻⁶ cm/s			
Cc1nn(C)cc1S(=O)(=O)N1C(=O)c2ccc(-n3ccc(OCC(C)(C)C(F)(F)F)n3)nc2N2C1[C@@H](C)CC2(C)C (some centres unmarked) [Compound 36, (75)-6-((1,3-dimethyl-1H-pyrazol-4-yl)sulfonyl)-7,9,9-trimethyl-2-(3-(3,3,3-trifluoro-2,2-dimethylpropoxy)-1H-pyrazol-1-yl)-6a,7,8,9-tetrahydropyrido[3,2-e]pyrrolo[1,2-a]pyrimidin-5(6H)-one]				metabolites of Compound 1				
Cc1nn(C)cc1S(=O)(=O)NC(=O)c1ccc(-n2ccc(OCCC3(C(F)(F)F)CC3)n2)nc1N1C[C@@H](C)CC1(C)C [Compound 15, N-(1,3-dimethylpyrazol-4-yl)sulfonyl-6-[3-[2-[1-(trifluoromethyl)cyclopropyl]ethoxy]pyrazol-1-yl]-2-[(4S)-2,2,4-trimethylpyrrolidin-1-yl]pyridine-3-carboxamide]	130 nM	3%	97%		2.7 ×10⁻⁶ cm/s	2.5 mL/min/kg	66%	16300 ng·h/mL
Cc1nn(C)cc1S(=O)(=O)NC(=O)c1ccc(-n2ccc(OCC(C)(CO)C(F)(F)F)n2)nc1N1C[C@@H](C)CC1(C)C (stereo partly drawn) [Compound 45, N-(1,3-dimethylpyrazol-4-yl)sulfonyl-6-[3-[3,3,3-trifluoro-2-(hydroxymethyl)-2-methyl-propoxy]pyrazol-1-yl]-2-[(4S)-2,2,4-trimethylpyrrolidin-1-yl]pyridine-3-carboxamide]	560 nM	9%	49%	metabolites of Compound 1	1.2 ×10⁻⁶ cm/s			
C[C@@H]1CN(c2nc(-n3ccc(OCC(C)(C)C)n3)ccc2C(=O)NS(=O)(=O)c2ccccc2)C(C)(C)C1 [C, reference compound]	120 nM	9%	6%		1.5 ×10⁻⁶ cm/s	29.2 mL/min/kg		
Cc1c(S(=O)(=O)NC(=O)c2ccc(-n3ccc(OCC4(C(F)(F)F)CC4)n3)nc2N2C[C@@H](C)CC2(C)C)cnn1C [Compound 9, N-(1,5-dimethylpyrazol-4-yl)sulfonyl-6-[3-[[1-(trifluoromethyl)cyclopropyl]methoxy]pyrazol-1-yl]-2-[(4S)-2,2,4-trimethylpyrrolidin-1-yl]pyridine-3-carboxamide]	420 nM	7%	30%		6.1 ×10⁻⁶ cm/s	1.7 mL/min/kg	99%	23400 ng·h/mL
Cc1nn(C)cc1S(=O)(=O)NC(=O)c1ccc(-n2ccc(OCC3C4(CC4)C34CC4)n2)nc1N1C[C@@H](C)CC1(C)C [Compound 28, (S)—N-((1,3-Dimethyl-1H-pyrazol-4-yl)sulfonyl)-6-(3-(dispiro[2.0.2.1]heptan-7-ylmethoxy)-1H-pyrazol-1-yl)-2-(2,2,4-trimethylpyrrolidin-1-yl)nicotinamide]	90 nM	4%	41%		2.2 ×10⁻⁶ cm/s	1.8 mL/min/kg	80%	7100 ng·h/mL
